For orientation: melting point means the temperature, or range, at which the solid turns liquid.

SMILES strings stand for the structures.

Turning to `CC(C)(C)OC(=O)/C=C/c1cccc(-c2nc(=O)c3ccccc3s2)n1`, the melting point is 176 to 178 °C. As for `CC(C)(C)C(=O)Nc1nc(O)c2c(n1)NCC(CCC1CCC(C(=O)O)CC1)C2` (configuration not stated), the figure is 218 to 234 °C; as for `O=C(Nc1ccc(N2CCC2)nc1)c1cc2cc(C(F)(F)F)cnc2n1Cc1cccc(F)c1`, 243 to 244 °C; as for `COc1ccc2c(c1)CC[C@H](CN1CCC3(CC1)C(=O)NCN3c1ccccc1)[C@@H]2O` (relative stereo), 182 to 183 °C. For `Nc1c([N+](=O)[O-])cc(Br)c2c1CCN(Cc1ccc(C(F)(F)F)cc1)C2`, the melting point fell in the range of 131 to 133 °C. With `CCOC(=O)c1c(CN(CC)CC)nc2sc3cnccc3c2c1-c1ccc(OC)c(OC)c1`, the melting point was 163 to 165 °C. As for `CC(c1cc(Cl)ccc1N1CCCC1)C(C(N)=O)c1ccc(C(=O)O)cc1` (configuration not stated), the figure is 202 to 204 °C; as for `Cc1c(F)c(F)c(F)c2c1c(=O)c(C(=O)O)cn2-c1ccc(O)cc1`, 287 to 288 °C; as for `O=C1CCc2ncc3cc(F)ccc3c2N1`, 266 to 267 °C. `FC(F)(F)c1cc(Nc2nnc(CCCc3cccnc3)c3ccccc23)ccc1Cl` registered a melting point of 142 °C. In turn, `CC(C)n1nnc(NC(=O)C(c2ccccc2)c2ccccc2)n1` displayed a melting point of 175 to 177 °C. As for `O=[N+]([O-])c1cccc2c1COC2`, the figure is 104 to 108 °C; as for `CCOc1cc(CO)cc(OCc2nc(-c3ccccc3)oc2C)c1`, 103 to 104 °C. Molecule `COc1cccc([C@H]2O[C@H](CC(=O)NCCCCCC(=O)O)C(=O)N(CC(C)(C)CO)c3ccc(Cl)cc32)c1OC` displayed a melting point of 96 to 98 °C. As for `OC1c2cc(OCc3ccc4ccccc4n3)ccc2OCCC1Oc1ccccc1` (configuration not stated), the figure is 128 to 129 °C.

In the case of `COC(=O)c1cc(C(=O)Cl)cc([N+](=O)[O-])c1`, the melting point lay within 66 to 68 °C. The value for `CCCCc1nc(C2CCCCC2)nn1Cc1ccc(-c2ccccc2-c2nnn[nH]2)cc1` was 125 to 127 °C. The value for `CCC(=O)Nc1cc(C(C)(C)C)[nH]n1` was 228 to 229 °C; that for `CC(C)(C)c1cc(C=[N+]([O-])C(C)(C)C)c(O)c(C(C)(C)C)c1` was 235 °C. The value for `COC(=O)c1c(C)noc1C(=O)NC(C)C` was 64 to 66 °C; that for `CCOC(=O)c1ccc(NO)cc1` was 72.5 °C; that for `CC(C)(C)c1nc(C(O)CCC2CCNCC2)c2ccccc2n1` (configuration not stated) was 110 °C. `COc1ccc(CN(Cc2ccco2)S(=O)(=O)c2ccc(C(=O)O)cc2)cc1` yielded a melting point of 151 to 152 °C. As for `C[Si]1(CC(CN)CC(=O)O)CCCCC1` (configuration not stated), the figure is 140 to 143 °C. The value for `CCCCc1ccc(NC(=O)OCc2ccccc2)c(=O)n1CC(=O)OC` was 111 to 112 °C; that for `CCC(=NO)c1ccc(Sc2cc(F)cc([C@@]3(OC)CCO[C@@H]3C)c2)cc1` (racemic) was 113 to 114 °C; that for `COc1cc(C=CC(=O)c2ccccc2)ccc1O` was 87 to 88 °C. The value for `CCOC(=O)c1c(C#N)nn(-c2c(Cl)cc(C(F)(F)F)cc2Cl)c1N` was 202 °C.

On to `c1ccc2c(OCCCCCCCCOc3cccc4ccccc34)cccc2c1`, for which the melting point turned out to be 60 °C. The value for `CC(C)OC(=O)c1cc(N)c(F)c(F)n1` was 167 to 168 °C; that for `CCCc1nc2c(N)nc(C)c(C)c2n1CCCCCS(=O)(=O)c1ccccc1` was 134 to 136 °C. The value for `CCOC(=O)c1cc2c3ccccc3n(Cc3ccccc3)c2nc1N1CCCCC1` was 155 to 156 °C; that for `COc1ccc(N(CC(=O)O)c2ccccc2)c(C(=O)O)c1` was 158 to 161 °C; that for `Cc1ccc(S(=O)(=O)NCCCN(CCN(CCCNS(=O)(=O)c2ccc(C)cc2)S(=O)(=O)c2ccc(C)cc2)S(=O)(=O)c2ccc(C)cc2)cc1` was 141 to 142 °C. In turn, `COc1ccc(-c2c(C(=O)O)n(Cc3ccc4c(c3)OCO4)c3ccccc23)cc1` registered a melting point of 109 to 111 °C. `O=C=Nc1ccc(OCc2nc(Cl)ccc2Cl)cc1` had a melting point of 61.5 to 62.5 °C.

The molecule `COC(=O)[C@@]1(O)C[C@@H](OC(=O)c2ccccc2)[C@@H]2OC(C)(C)O[C@@H]2C1` returned a melting point of 109 to 110 °C. Regarding `Nc1ncccc1Sc1ccccc1`, the melting point was in the range of 108 to 109 °C. With `CS(=O)c1cc(-c2ccc(Oc3ccccc3)cc2)nn1C(N)=O` (configuration not stated), the melting point came to 92 °C. Molecule `COc1nc(C)c(C)nc1N(C)C(=O)N1CCN(c2cc(F)cc(F)c2)CC1` yielded a melting point of 104 to 106 °C. In turn, `CC(C)=NOCc1nc2c(N)nc3ccccc3c2n1CC(C)(C)O` gave a melting point of 212 to 216 °C.

`O=C1NCCN1c1ccc(S(=O)(=O)Nc2ccccc2)cc1` returned a melting point of 262 to 264 °C. Molecule `CC(=O)NCCc1coc2ccc3c(c12)CCCO3` gave a melting point of 162 °C. As for `COc1ccccc1-n1c(=O)[nH]c2c(C(N)=O)nc(-c3cccc(OC(F)(F)F)c3)nc21`, the figure is 269 to 272 °C; as for `CNCCNCc1ccc(-c2cc3ncnc(Nc4ccc5[nH]ccc5c4)c3s2)cc1`, 93 to 105 °C; as for `COc1cc(CC(=O)Nc2ccc(I)cc2)ccc1NC(=O)Nc1ccccc1C`, greater than 200 °C. As for `COC(=O)c1cnn(O)c1`, the figure is 175 °C; as for `Cc1ccccc1Oc1ccccc1C(=O)O`, 133 to 134 °C; as for `N#Cc1ccc(Sc2ccc3cc(Br)ccc3c2)cc1C(F)(F)F`, 114 to 116 °C.

The molecule `CCOC(=O)C1(CCCCOc2ccc(C(=O)OC)cc2)Cc2c(OC)c(OC)c(OC)c(OC)c2C1=O` (configuration not stated) came in with a melting point of 116 to 118 °C.

Molecule `N#CCN1C(=O)N(c2ccc(C#N)c(C(F)(F)F)c2)C(=O)C1(CF)CF` had a melting point of 125 °C. As for `O=C(CCCCCBr)Nc1ccc(C(F)(F)F)cc1`, the figure is 96 to 98 °C. The value for `Cc1nn(-c2ccccc2)c(C)c1CC#N` was 69 to 70 °C; that for `O=C(O)c1ccc2[nH]cc(-c3cc4cccnc4[nH]3)c2c1` was greater than 300 °C; that for `O=C(NCc1ccc(C(F)(F)F)cc1)c1ccnc(NC(=O)c2ccccc2)c1` was 165 to 168 °C. As for `CC1(C)CN(CC=CC(=O)Nc2cc3c(Nc4ccc(F)c(Cl)c4)ncnc3cc2OCC2CC2)CC(=O)O1`, the figure is 140 to 142 °C; as for `CC1=CCN(C)C2C1N2C#N` (configuration not stated), 117 °C; as for `Cc1ccc(S(=O)(=O)OCC2Cc3cccc(-c4cc(C(F)(F)F)cc(C(F)(F)F)c4)c3O2)cc1` (configuration not stated), 100 to 105 °C. Molecule `NS(=O)(=O)c1ccc(S(=O)(=O)CCCc2ccc(O)cc2)s1` yielded a melting point of 112 to 115 °C. The value for `CC(C)C1(C)N=C(c2ncc(CN(C)C)cc2C(=O)O)NC1=O` (configuration not stated) was 186 to 190 °C; that for `CCN1c2ncc(COc3cccnc3)cc2C(=O)N(C)c2ccc(Cl)nc21` was 183 to 184 °C. As for `O=[N+]([O-])c1ccc(C=Cc2ccccc2)cc1`, the figure is 46 to 50 °C. As for `CCNC(=O)c1ccc(COC(=O)c2ccc(OC)c(C(C)(C)C)c2)cc1`, the figure is 107 to 108 °C. On to `CC(C)(C)C(=O)OCOC(=O)[C@H]1C[C@H](NC(=O)Cc2ccccc2)c2c(Cl)cc(Cl)cc2N1` (relative stereo), for which the melting point lay within 162 to 163 °C. Regarding `C(=C1/CCCc2ccccc21)/c1cnc[nH]1`, the melting point was in the range of 136 to 138 °C.

`CCOCc1nc2c(N)nc3cc(-c4cccc(NS(C)(=O)=O)c4)cnc3c2n1CC(C)(C)F` had a melting point of 208 to 209 °C. As for `NC(=O)NNCc1ccc(OCCc2coc(-c3ccccc3)n2)cc1`, the figure is 192 to 196 °C; as for `CC(C)(C)c1ccc(Cn2ccc3ccc(-c4ccc(OC(F)(F)F)cc4)cc32)cc1`, 100 to 102 °C. The molecule `CCOC(=S)CC/C(C)=C/Cc1c(OC)c(C)c2c(c1OC(C)=O)C(=O)OC2` yielded a melting point of 81 to 84 °C. Take `CCOC(=O)Cn1c(C(=O)NCc2nnc(C)n2-c2sc(CC)cc2C(=O)c2ccccc2)cc2ccccc21`: the melting point was 129 to 131 °C.

Turning to `CS(=O)(=O)Nc1c(CC(=O)O)cccc1Oc1ccccc1Cl`, the melting point lay in the range of 159 to 163 °C. As for `CC1CC2C3CC(F)C4=CC(=O)C=CC4(C)C3C(O)CC2(C)C1C(=O)COC(=O)CCC(=O)O` (configuration not stated), the figure is 212 to 214 °C; as for `CC(C)(C)c1ccc2c(C=O)c3ccccc3c(Cl)c2c1`, 143 to 147 °C.

`Nc1ccccc(Br)c1=O`: the melting point was 133 to 135 °C. As for `COc1cc(C[C@@H](NC(C)=O)C(=O)O)ccc1OC(C)=O`, the figure is 174 to 175 °C; as for `CC1C(=O)c2cc(NS(C)(=O)=O)ccc2OC12CCN(CCc1ccccn1)CC2` (configuration not stated), 210 to 211 °C. As for `O=S1(=O)NC(C2CCCCC2)Nc2ccc(S(=O)(=O)c3ccccc3)cc21` (configuration not stated), the figure is 243 to 245 °C. In the case of `O=C(CC1CCN(CCCn2c(=O)[nH]c3ccccc32)CC1)c1ccc(F)cc1`, the melting point amounted to 208 °C. With `CCCCCCCCCCCCCCOc1ccc(CC(=O)Nc2cccc(C(=O)OCC)c2)cc1`, the melting point lay within 91 to 94 °C. The value for `COc1cc(-c2ccc([N+](=O)[O-])cn2)cc(OC)c1OC` was 134 to 136 °C; that for `CC(C)n1nc(-c2cc(C(=O)O)cnc2-c2ccccc2)ccc1=O` was 221 to 223 °C. Regarding `C1=Cc2cccnc2Nc2ncccc21`, the melting point lay in the range of 126 to 129 °C. In turn, `N#CC1(C(O)(Cn2cncn2)c2ccccc2)CC1` (configuration not stated) registered a melting point of 103 to 105 °C. The value for `COC(=O)c1ccc(OCCCOc2cc3c(cc2O)CCO3)cc1` was 133 to 135 °C; that for `CCCCc1ccc(NS(=O)(=O)c2ccc(N3CCNC3=O)cc2)cc1` was 203 to 205 °C.

As to `N#Cc1cc(=O)n(CCc2ccccc2)s1`, the melting point was determined as 228 °C. The value for `CC(C(=O)O)c1ccc(C(=O)c2cc3ccsc3s2)cc1` (configuration not stated) was 150 °C.
